Measured values reported in patent publication US6410535B1, “Prophylactic or therapeutic agents for diseases having vascular dysfunction associated with insulin resistance” (Suntory Limited, priority 1998, dated 2002).
Structures can show the parent of a compound that is named as a salt.

Legend:
[1] = as reported in Japanese Patent Public Disclosure No. 25323/84; cited from earlier work
[2] = rat, in vivo, po
[3] = tested on: thoracic aorta tissue sections; assay: Superoxide anion (O2−) production level in thoracic aorta tissue sections, lucigenin-enhanced chemiluminescence; format: in vivo, Sprague-Dawley rats; settings: for O2− production level, Average: 10 mg BH4 dihydrochloride/kg/day oral, 8 weeks
Description: (§1) Male Sprague-Dawley rats (150 g, supplied from Charles River) were used to prepare a model group with insulin resistance induced by fructose feed loading (hereinafter referred to as “FR group”) according to the procedure described by Hwang et al. (Hwang, I-H. et al., Hypertension 10:512, 1987). A control group grown with a starch feed (hereinafter referred to as “CTR group”) was also prepared (FR group: n=16; CTR group: n=16). FR group received a feed containing 67% (hereinafter meaning % by weight) carbohydrate (containing 98% fructose available from Oriental Yeast Co., Ltd.), 13% fat and 20% protein, while CTR group received a feed containing 58% carbohydrate, 12% fat and […]. […] After 8 weeks, the thoracic aorta was collected. For each group, endothelium-separated sections (EC (−)) and non-separated sections (EC (+)) were prepared and examined for superoxide anion (O2^−) production level, endothelial NOS (eNOS) activity and endothelium-dependent vasorelaxation.
(§2) Group-to-group statistic analyses were made by one-way ANOVA, with the significance level being p<0.05. Multiple comparison was made by Bonferronl/Dunn, with the significance level being p<0.05.
Measurement of O2^− production level was made by the lucigenin-enhanced chemiluminescence method (Ohara et al., J. Clin. Invest. 91: 2546, 1993).

endothelial NOS (eNOS) = molecular target: T1, endothelial NOS (eNOS) (Rattus norvegicus, UniProt Q62600); assay: Endothelial NOS activity in thoracic aorta sections; format: in vivo, Sprague-Dawley rats; settings: for eNOS activity, Average: 10 mg/kg/day oral, 8 weeks
T1 construct: After 8 weeks, the thoracic aorta was collected; from tissue; host or cells: thoracic aorta sections with endothelium (EC (+)) of Sprague-Dawley rats
Description: as §1, §2
Measurement of eNOS activity was made according to Rees, D. et al., Hypertension 28: 367, 1996.

thoracic aorta sections [4] = assay: Endothelium-dependent vasorelaxation induced by acetylcholine, isometric tensiometry; format: in vivo, Sprague-Dawley rats; settings: for Endothelium-dependent vasorelaxation induced by acetylcholine, Average / Endothelium-dependent vasorelaxation induced by acetylcholine, Average (TABLE 3): 10 mg/kg/day oral, 8 weeks; for Endothelium-dependent vasorelaxation induced by acetylcholine, Average: acetylcholine 10^−5 M, vs 10^−4 M papaverine; for Endothelium-dependent vasorelaxation induced by acetylcholine, Average (TABLE 3): repeat print of Table 3
Description: as §1, §2
Measurement of endothelium-dependent vasorelaxation was made by the isometric tensiometry (Toda, N. et al., Stroke 24: 1584, 1993) using ink-writing oscillographs (Nippon Kohden Corporation) and a force-displacement transducer (Nippon Kohden Corporation). Data were shown as % maximum relaxation vs. the maximum relaxation induced by 10^−4 M papaverine after aortic sections were partially precontracted with 1-3×10^−7 M 1-phenylephrine. Endothelium-dependent vasorelaxation induced by acetylcholine (10^−5M) and calcium ionophore (A23187, Sigma) (3×10^−7 M) in EC (+) of each of the 4 groups are shown in Tables 3 and 4, respectively.

thoracic aorta sections [5] = assay: Endothelium-dependent vasorelaxation induced by calcium ionophore (A23187), isometric tensiometry; format: in vivo, Sprague-Dawley rats; settings: FR group, EC (+), A23187 3×10^−7 M
Description: as §1
Group-to-group statistic analyses were made by one-way ANOVA, with the significance level being p<0.05. Multiple comparison was made by Bonferronl/Dunn, with the significance level being p<0.05. […]

[6] = CTR + BH4 group (starch feed), EC (+)
[7] = FR + BH4 group (fructose-fed, insulin resistant), EC (+)

C[C@H](O)[C@H](O)C1CNc2nc(N)[nH]c(=O)c2N1 (stereo partly drawn) [(6R,S)-5,6,7,8-tetrahydrobiopterin]
toxicity (in words) [1]: only slightly toxic

CC(O)C(O)C1CNc2nc(N)[nH]c(=O)c2N1 [BH4 dihydrochloride, (6R)-L-erythro-5,6,7,8-tetrahydrobiopterin]
acute toxicity [2]: ≥ 2 g/kg (body weight)

CC(O)C(O)C1CNc2nc(N)[nH]c(=O)c2N1 [BH4, (6R)-L-erythro-5,6,7,8-tetrahydrobiopterin]
O2− production level, Average [3, 6]: 189.3 100 cpm/mg dry weight
change of O2− production level by BH4 administration (in words) ([3]; CTR group): any significant change was not observed
O2− production level, difference among the 4 groups (in words) ([3]; EC (−) endothelium-separated sections): No significant difference
O2− production level, Average [3, 7]: 118.0 100 cpm/mg dry weight
change of O2− production level by BH4 administration (in words) ([3]; FR group, EC (+)): significantly (p<0.001) decreased
eNOS activity, Average (endothelial NOS (eNOS); [6]): 57.0 pmol/min/mg protein
change of eNOS activity by BH4 administration (in words) (endothelial NOS (eNOS); CTR group): any significant change was not observed
eNOS activity, Average (endothelial NOS (eNOS); [7]): 60.2 pmol/min/mg protein
change of eNOS activity by BH4 administration (in words) (endothelial NOS (eNOS); FR group, EC (+)): significantly (p<0.001) improved
Endothelium-dependent vasorelaxation induced by acetylcholine, Average (thoracic aorta sections [4]; CTR + BH4 group, EC (+)): 92.9 % maximum relaxation
Endothelium-dependent vasorelaxation induced by acetylcholine, Average (TABLE 3) (thoracic aorta sections [4]; CTR + BH4 group, EC (+)): 92.9 % maximum relaxation
change of endothelium-dependent vasorelaxation by BH4 administration (in words) (thoracic aorta sections [4]; CTR group): any significant change was not observed
Endothelium-dependent vasorelaxation induced by acetylcholine, Average (thoracic aorta sections [4]; FR + BH4 group, EC (+)): 82.6 % maximum relaxation
Endothelium-dependent vasorelaxation induced by acetylcholine, Average (TABLE 3) (thoracic aorta sections [4]; FR + BH4 group, EC (+)): 82.6 % maximum relaxation
change of acetylcholine-induced endothelium-dependent vasorelaxation by BH4 administration (in words) (thoracic aorta sections [4]; FR group, EC (+)): significantly (p<0.001) recovered
change of calcium ionophore-induced endothelium-dependent vasorelaxation by BH4 administration (in words) (thoracic aorta sections [5]): significantly (p<0.001) recovered
